Literature values as cited in patent US20230330191A1, “METHODS OF STIMULATING BONE GROWTH WITH ABALOPARATIDE AND DENOSUMAB” (Radius Health, Inc., priority 2020, published 2023).

Assays:
[1] = test system: ovariectomy-induced osteopenia animal models
RANKL:OPG ratio = conditions: Makino, CTI 2018
[2] = in vivo
[3] = in vivo; remark: listed apart in the source

## CC[C@H](C)[C@H](NC(=O)[C@H](CCC(=O)O)NC(=O)[C@H](CO)NC(=O)[C@@H](NC(=O)[C@@H](N)CO)C(C)C)C(=O)N[C@@H](CCC(N)=O)C(=O)N[C@@H](CC(C)C)C(=O)N[C@@H](CCSC)C(=O)N[C@@H](Cc1cnc[nH]1)C(=O)N[C@@H](CC(N)=O)C(=O)N[C@@H](CC(C)C)C(=O)NCC(=O)N[C@@H](CCCCN)C(=O)N[C@@H](Cc1cnc[nH]1)C(=O)N[C@@H](CC(C)C)C(=O)N[C@@H](CC(N)=O)C(=O)N[C@@H](CO)C(=O)N[C@@H](CCSC)C(=O)N[C@@H](CCC(=O)O)C(=O)N[C@@H](CCCN=C(N)N)C(=O)N[C@H](C(=O)N[C@@H](CCC(=O)O)C(=O)N[C@@H](Cc1c[nH]c2ccccc12)C(=O)N[C@@H](CC(C)C)C(=O)N[C@@H](CCCN=C(N)N)C(=O)N[C@@H](CCCCN)C(=O)N[C@@H](CCCCN)C(=O)N[C@@H](CC(C)C)C(=O)N[C@@H](CCC(N)=O)C(=O)N[C@@H](CC(=O)O)C(=O)N[C@H](C(=O)N[C@@H](Cc1cnc[nH]1)C(=O)N[C@@H](CC(N)=O)C(=O)N[C@@H](Cc1ccccc1)C(=O)O)C(C)C)C(C)C [teriparatide]
women; 2 years of teriparatide after 2 years of denosumab, versus mean BMD at end of denosumab treatment (Leder, Lancet 2015)
  total hip BMD: remains below the mean BMD
women; switching from denosumab to teriparatide
  BMD in the hip and femoral neck: substantial BMD loss

## Denosumab: fully human monoclonal IgG antibody with affinity and specificity for human receptor activator of nuclear factor kappa-B ligand (RANKL)
women; after withdrawal (Cummings JBMR 2017)
  effects of denosumab withdrawal on bone: dramatic increased bone remodeling, rapid prominent bone loss, and multiple vertebral fractures

## [Glu22,25, Leu23,28,31, Aib29, Lys26,30]hPTHrP(1-34)NH2 [abaloparatide]
[1]
  bone loss (bone anabolic activity): complete reversal of bone loss
RANKL:OPG ratio
  RANKL and OPG expression, RANKL:OPG ratio: upregulates RANKL and reduces OPG, increasing the RANKL:OPG ratio
[2]
  increases in BMD compared with cathepsin K inhibitor drugs or PTH-like drugs such as teriparatide: substantially faster and greater
  potential to induce hypercalcemia compared to teriparatide: lower potential to induce hypercalcemia
[3]
  incidence of the most common adverse reactions (hypercalciuria, dizziness, nausea, headache, palpitations, fatigue, upper abdominal pain, vertigo): > 2%
